Where “and” joins values, the source holds several entries; their conditions need not be identical. Identical values can stand only once. Inconclusive results and toxic doses are left out. Rule for the calls: active = survival T/C of 150% or more; inactive = T/C below 125% in these data. Square brackets hold non-standard residues; d marks the D form. Peptide text beside a SMILES is read from it. * marks the point of attachment. Nle = CCCC[CH](N)C(=O)O; Cbz = O=C(OCc1ccccc1)*
Tested on: P388 leukemia ip, CD2F1 mice, survival T/C
Test: NCI In Vivo Anticancer Drug Screen. Data for tumor model P388 Leukemia (intraperitoneal) in CD2F1 (CDF1) mice
Details: endpoint: median survival time, higher = longer survival
In short: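 Mice carrying the transplanted tumor received test compound or vehicle. Survival was recorded in each group, and the value is the treated-group measurement divided by that of the vehicle-treated control group.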

[1] = dose: 50.0 mg/kg/injection, schedule: Q01DX009 (ip), vehicle: Klucel (hydroxypropylcellulose) (HPC)
[2] = dose: 60.0 mg/kg/injection, schedule: Q01DX005 (ip), vehicle: saline with Tween-80
[3] = dose: 120.0 mg/kg/injection, schedule: Q01DX005 (ip), vehicle: saline with Tween-80
[4] = dose: 240.0 mg/kg/injection, schedule: Q01DX005 (ip), vehicle: saline with Tween-80
[5] = dose: 6.25 mg/kg/injection, schedule: Q01DX009 (ip), vehicle: saline
[6] = dose: 12.5 mg/kg/injection, schedule: Q01DX009 (ip), vehicle: saline
[7] = dose: 25.0 mg/kg/injection, schedule: Q01DX009 (ip), vehicle: saline
[8] = dose: 50.0 mg/kg/injection, schedule: Q01DX009 (ip), vehicle: saline
[9] = dose: 100.0 mg/kg/injection, schedule: Q01DX009 (ip), vehicle: Klucel (hydroxypropylcellulose) (HPC)
[10] = dose: 200.0 mg/kg/injection, schedule: Q01DX009 (ip), vehicle: Klucel (hydroxypropylcellulose) (HPC)
[11] = dose: 50.0 mg/kg/injection, schedule: Q01DX005 (ip), vehicle: saline with Tween-80
[12] = dose: 100.0 mg/kg/injection, schedule: Q01DX005 (ip), vehicle: saline with Tween-80
[13] = dose: 200.0 mg/kg/injection, schedule: Q01DX005 (ip), vehicle: saline with Tween-80
[14] = dose: 100.0 mg/kg/injection, schedule: Q04DX003 (ip), vehicle: saline with Tween-80
[15] = dose: 400.0 mg/kg/injection, schedule: Q04DX003 (ip), vehicle: saline with Tween-80
[16] = dose: 200.0 mg/kg/injection, schedule: Q04DX003 (ip), vehicle: saline with Tween-80
[17] = dose: 12.5 mg/kg/injection, schedule: Q01DX001 (ip), vehicle: Klucel (hydroxypropylcellulose) (HPC)

Measured: T/C

FC(F)(F)c1cc(NC(=S)SCc2ccc(Cl)cc2)ccc1Cl
inactive: dose: 50.0 mg/kg/injection, schedule: Q01DX009 (ip), vehicle: suspension in saline 103 % of control | dose: 100.0 mg/kg/injection, schedule: Q01DX009 (ip), vehicle: suspension in saline 90 % of control | dose: 200.0 mg/kg/injection, schedule: Q01DX009 (ip), vehicle: suspension in saline 93 % of control

c1ccc(N=NC(c2ccccc2)(c2ccccc2)c2ccccc2)cc1
inactive: dose: 6.25 mg/kg/injection, schedule: Q01DX009 (ip), vehicle: Klucel (hydroxypropylcellulose) (HPC) 110 % of control | dose: 12.5 mg/kg/injection, schedule: Q01DX009 (ip), vehicle: Klucel (hydroxypropylcellulose) (HPC) 110 % of control | dose: 25.0 mg/kg/injection, schedule: Q01DX009 (ip), vehicle: Klucel (hydroxypropylcellulose) (HPC) 99 % of control | [1] 107 % of control

COC(=O)c1nnn(-c2ccc(Cl)cc2C)c1N
inactive: [2] 96 % of control | [3] 97 % of control | [4] 91 % of control

O=C(c1ccccc1)c1ccc[n+](Cc2c(Cl)cccc2Cl)c1
inactive: [5] 101 % of control and 98 % of control | [6] 102 % of control and 105 % of control | [7] 105 % of control and 111 % of control and 123 % of control | [8] 108 % of control and 114 % of control and 117 % of control

NC1=NN(O)C2=CC(F)C=CC2=N1 (configuration not stated)
inactive: [1] 103 % of control and 91 % of control | [9] 101 % of control and 114 % of control and 92 % of control | [10] 100 % of control and 91 % of control | dose: 400.0 mg/kg/injection, schedule: Q01DX009 (ip), vehicle: Klucel (hydroxypropylcellulose) (HPC) 105 % of control

O/N=C/c1cccc(O)c1O
inactive: [11] 96 % of control | [12] 107 % of control

O=C(Nc1cccc([N+](=O)[O-])c1)OCc1ccc2c(c1)OCO2
inactive: [2] 91 % of control | [3] 90 % of control

CC(C)(C)SCC(CSC(C)(C)C)(CSC(C)(C)C)CSC(C)(C)C
inactive: dose: 1.5 mg/kg/injection, schedule: Q01DX001 (ip), vehicle: saline with Tween-80 102 % of control | dose: 3.0 mg/kg/injection, schedule: Q01DX001 (ip), vehicle: saline with Tween-80 98 % of control | dose: 6.0 mg/kg/injection, schedule: Q01DX001 (ip), vehicle: saline with Tween-80 112 % of control

CCCCCCCCCC[N+](C)(C)CCO
inactive: [6] 118 % of control | [7] 109 % of control | [8] 116 % of control

CC(C)(C)OC(=O)NC(CCC(=O)O)C(=O)O (configuration not stated)
inactive: [11] 100 % of control | [12] 97 % of control | [13] 103 % of control

CCC(C)N(CCNc1cc(OC)cc2cccnc12)CC(C)C (configuration not stated)
inactive: dose: 12.5 mg/kg/injection, schedule: Q01DX005 (ip), vehicle: saline 104 % of control | dose: 25.0 mg/kg/injection, schedule: Q01DX005 (ip), vehicle: saline 104 % of control | dose: 50.0 mg/kg/injection, schedule: Q01DX005 (ip), vehicle: saline 101 % of control and 95 % of control

Cc1ccc(C(=O)C(CN(C)C)CN(C)C)cc1
inactive: dose: 3.12 mg/kg/injection, schedule: Q01DX009 (ip), vehicle: saline 101 % of control and 90 % of control | dose: 3.13 mg/kg/injection, schedule: Q01DX009 (ip), vehicle: saline 112 % of control | [5] 110 % of control [middle of 4 runs] | [6] 107 % of control and 118 % of control

CCCCCCCCS(=O)(=O)NC
inactive: [7] 117 % of control | [8] 102 % of control | dose: 200.0 mg/kg/injection, schedule: Q01DX009 (ip), vehicle: saline 102 % of control

COc1cccc2c1C(=O)c1c(O)c3c(c(O)c1C2=O)C[C@@](O)(C(C)=O)C[C@@H]3OC1CC(N(Cc2ccccc2)Cc2ccccc2)C(O)C(C)O1 (some centres not stated)
inactive: dose: 0.78 mg/kg/injection, schedule: Q01DX009 (ip), vehicle: water 105 % of control | dose: 1.56 mg/kg/injection, schedule: Q01DX009 (ip), vehicle: water 114 % of control | dose: 50.0 mg/kg/injection, schedule: Q01DX009 (ip), vehicle: water 92 % of control | dose: 60.0 mg/kg/injection, schedule: Q04DX003 (ip), vehicle: water 94 % of control
active: dose: 6.25 mg/kg/injection, schedule: Q01DX009 (ip), vehicle: water 156 % of control | dose: 12.5 mg/kg/injection, schedule: Q01DX009 (ip), vehicle: water 189 % of control and 221 % of control | dose: 13.0 mg/kg/injection, schedule: Q04DX003 (ip), vehicle: water 158 % of control | dose: 21.6 mg/kg/injection, schedule: Q04DX003 (ip), vehicle: water 180 % of control | dose: 25.0 mg/kg/injection, schedule: Q01DX009 (ip), vehicle: water 247 % of control and 271 % of control

COCCN(CCOC)C(C(=O)Cc1ccccc1)c1ccccc1 (configuration not stated)
inactive: [11] 99 % of control | [12] 101 % of control | [13] 103 % of control

O=[N+]([O-])c1ccc(N/N=C\c2c(Cl)n(-c3ccccc3)c3ccccc23)c([N+](=O)[O-])c1
inactive: dose: 25.0 mg/kg/injection, schedule: Q01DX005 (ip), vehicle: saline with Tween-80 106 % of control | [11] 100 % of control and 105 % of control | [12] 109 % of control and 117 % of control | [14] 90 % of control | [13] 109 % of control and 114 % of control | [15] 88 % of control

Cc1ccc(S(=O)(=O)N2C(=O)CCC2=O)cc1
inactive: dose: 100.0 mg/kg/injection, schedule: Q04DX003 (ip), vehicle: Klucel (hydroxypropylcellulose) (HPC) 106 % of control | [14] 105 % of control | dose: 200.0 mg/kg/injection, schedule: Q04DX003 (ip), vehicle: Klucel (hydroxypropylcellulose) (HPC) 120 % of control | [16] 100 % of control | [15] 110 % of control

C(=Nc1ccncc1)c1c[nH]c2ccccc12
inactive: dose: 3.12 mg/kg/injection, schedule: Q01DX001 (ip), vehicle: Klucel (hydroxypropylcellulose) (HPC) 104 % of control | dose: 6.25 mg/kg/injection, schedule: Q01DX001 (ip), vehicle: Klucel (hydroxypropylcellulose) (HPC) 98 % of control | [17] 101 % of control and 104 % of control

CC(=O)NC(CCl)(OC(C)=O)C(=O)OCc1ccc([N+](=O)[O-])cc1 (configuration not stated)
inactive: [17] 102 % of control | dose: 25.0 mg/kg/injection, schedule: Q01DX001 (ip), vehicle: Klucel (hydroxypropylcellulose) (HPC) 108 % of control | dose: 50.0 mg/kg/injection, schedule: Q01DX001 (ip), vehicle: Klucel (hydroxypropylcellulose) (HPC) 100 % of control | [14] 106 % of control | [16] 120 % of control | [15] 100 % of control

CCCCC(NC(=O)C(Cc1ccccc1)NC(=O)OCc1ccccc1)C(=O)O (stereo not drawn) (Cbz-Phe-[Nle]-OH; configuration not given here)
inactive: [11] 104 % of control | [12] 105 % of control | [13] 97 % of control

c1ccc(C23CCCCC2O3)cc1 (configuration not stated)
inactive: dose: 60.0 mg/kg/injection, schedule: Q01DX005 (ip), vehicle: Klucel (hydroxypropylcellulose) (HPC) 102 % of control | dose: 120.0 mg/kg/injection, schedule: Q01DX005 (ip), vehicle: Klucel (hydroxypropylcellulose) (HPC) 107 % of control | dose: 240.0 mg/kg/injection, schedule: Q01DX005 (ip), vehicle: Klucel (hydroxypropylcellulose) (HPC) 111 % of control

COc1cc(C(=O)NC2CCc3cc(OC)c(OC)c(OC)c3-c3ccc(OC)c(=O)cc32)cc(OC)c1OC (configuration not stated)
active: dose: 10.0 mg/kg/injection, schedule: Q01DX009 (ip), vehicle: Klucel (hydroxypropylcellulose) (HPC) 152 % of control and 154 % of control | dose: 20.0 mg/kg/injection, schedule: Q01DX009 (ip), vehicle: Klucel (hydroxypropylcellulose) (HPC) 155 % of control and 163 % of control
inactive: dose: 1.25 mg/kg/injection, schedule: Q01DX009 (ip), vehicle: Klucel (hydroxypropylcellulose) (HPC) 119 % of control | dose: 2.5 mg/kg/injection, schedule: Q01DX009 (ip), vehicle: Klucel (hydroxypropylcellulose) (HPC) 124 % of control

COc1cc2cc(/C(C)=N/OCC3CO3)c(Cl)nc2cc1OC (configuration not stated)
inactive: [11] 96 % of control | [12] 93 % of control | [13] 92 % of control

NC(=O)C(NC(=O)c1ccc([N+](=O)[O-])cc1)C(N)=O
inactive: dose: 100.0 mg/kg/injection, schedule: Q04DX003 (ip), vehicle: saline 103 % of control | dose: 200.0 mg/kg/injection, schedule: Q04DX003 (ip), vehicle: saline 103 % of control | dose: 400.0 mg/kg/injection, schedule: Q04DX003 (ip), vehicle: saline 103 % of control

CCOC(=O)/C=C/N=[N+]=[N-]
inactive: [2] 102 % of control | [3] 105 % of control | [4] 106 % of control

CN1N=C(c2ccccc2O)/C(=C/c2c(-c3ccccc3O)[nH]n(C)c2=O)C1=O
inactive: [2] 94 % of control | [3] 86 % of control | [4] 87 % of control

CCN1C(=O)c2cccc([N+](=O)[O-])c2C1=O
inactive: [9] 101 % of control | [10] 104 % of control

Source: PubChem BioAssay AID330 (DTP/NCI, 2004)
